Results from patent US20110130380A1, “Heteroaryl Kinase Inhibitors” (priority 2009, published 2011).
pIC50: −log10 of the molar value.

Molecular target: Cdk9/cyclinT1 (Homo sapiens, UniProt P50750)
Assay: Cdk9/cyclinT1 IMAP Protocol (fluorescence polarization kinase assay)
Conditions: ATP 6 uM
[1] = Cdk9_cyclinT1_IC50, Table V, generated using one of the two Cdk9/cyclinT1 assays (IMAP or Alpha Screen), not stated which

Chain of Cdk9/cyclinT1 (P50750 whole entry): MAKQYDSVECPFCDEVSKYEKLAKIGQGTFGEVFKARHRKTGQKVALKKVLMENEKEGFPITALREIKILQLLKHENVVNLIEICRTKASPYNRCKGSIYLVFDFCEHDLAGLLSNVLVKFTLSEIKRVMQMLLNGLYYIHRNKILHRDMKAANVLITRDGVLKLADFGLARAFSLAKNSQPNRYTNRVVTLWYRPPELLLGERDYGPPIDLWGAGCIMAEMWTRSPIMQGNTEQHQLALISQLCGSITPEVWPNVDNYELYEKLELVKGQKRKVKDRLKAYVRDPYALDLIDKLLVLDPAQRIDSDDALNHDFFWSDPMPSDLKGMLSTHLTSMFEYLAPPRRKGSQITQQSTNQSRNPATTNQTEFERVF
Chain of Cdk9/cyclinT1 (O60563 whole entry partner): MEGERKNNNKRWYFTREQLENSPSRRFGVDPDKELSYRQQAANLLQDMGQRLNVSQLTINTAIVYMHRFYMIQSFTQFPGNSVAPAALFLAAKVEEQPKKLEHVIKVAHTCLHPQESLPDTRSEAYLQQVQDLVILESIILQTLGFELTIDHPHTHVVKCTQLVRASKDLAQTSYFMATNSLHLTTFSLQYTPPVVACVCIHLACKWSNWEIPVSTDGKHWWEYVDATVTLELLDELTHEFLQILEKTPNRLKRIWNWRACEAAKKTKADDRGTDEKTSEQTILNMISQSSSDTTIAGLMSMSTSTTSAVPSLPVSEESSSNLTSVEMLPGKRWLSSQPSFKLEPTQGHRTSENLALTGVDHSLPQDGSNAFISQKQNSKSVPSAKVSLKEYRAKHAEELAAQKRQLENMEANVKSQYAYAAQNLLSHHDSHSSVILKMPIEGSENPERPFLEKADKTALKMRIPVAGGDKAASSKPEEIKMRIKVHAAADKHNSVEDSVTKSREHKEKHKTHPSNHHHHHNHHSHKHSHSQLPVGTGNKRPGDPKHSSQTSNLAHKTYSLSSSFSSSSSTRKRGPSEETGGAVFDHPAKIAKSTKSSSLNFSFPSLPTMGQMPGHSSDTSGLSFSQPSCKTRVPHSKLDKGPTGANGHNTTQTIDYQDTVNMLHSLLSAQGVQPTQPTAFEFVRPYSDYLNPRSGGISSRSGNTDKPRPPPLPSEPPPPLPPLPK

Row | Compound | pIC50 [1] | pIC50 (Cdk9_cyclinT1_IC50, generated using one of the two Cdk9/cyclinT1 assays (IMAP or Alpha Screen), not specified per value)
1 | O=C(Nc1cc(-c2cccnc2)c(Cl)cn1)[C@@H]1CCCNC1 [Example 305, (R)-Piperidine-3-carboxylic acid (5′-chloro-[3,4′]bipyridinyl-2′-yl)-amide] |  | 6.42
2 | CC(C)S(=O)(=O)N1CCC[C@H](C(=O)Nc2cc(-c3nc(NCC4CCOCC4)ccc3Cl)c(Cl)cn2)C1 [Example 112, (S)-1-(Propane-2-sulfonyl)-piperidine-3-carboxylic acid {3,5′-dichloro-6-[(tetrahydro-pyran-4-ylmethyl)-amino]-[2,4′]bipyridinyl-2′-yl}-amide] | > 8.10 | 
3 | C[C@@H]1CC[C@@H](C(=O)Nc2cc(-c3cccc(NCC4CCOCC4)n3)c(Cl)cn2)CN1 (racemic) [Example 127, (3R,6R)-/(3S,6S)-6-methyl-piperidine-3-carboxylic acid {5′-chloro-6-[(tetrahydro-pyran-4-ylmethyl)-amino]-[2,4′]bipyridinyl-2′-yl}-amide] | 8.05 | 
4 | O=C(Nc1cc(-c2nc(NCC3CCOCC3)ccc2Cl)c(F)cn1)[C@H]1CNCCO1 [Example 124, (R)-Morpholine-2-carboxylic acid {3-chloro-5′-fluoro-6-[(tetrahydro-pyran-4-ylmethyl)-amino]-[2,4′]bipyridinyl-2′-yl}-amide] | 7.52 | 
5 | O=C(Nc1cc(-c2cccc(NCC3CCOCC3)n2)c(Cl)cn1)[C@@H]1CC[C@@H](C(F)(F)F)NC1 (racemic) [Example 161, (3R,6S)-/(3S,6R)-6-Trifluoromethyl-piperidine-3-carboxylic acid {5′-chloro-6-[(tetrahydro-pyran-4-ylmethyl)-amino]-[2,4′]bipyridinyl-2′-yl}-amide] | 8.05 | 
6 | CO[C@H]1CNC[C@@H]1C(=O)Nc1cc(-c2cccc(NCC3C[C@@H](C)O[C@@H](C)C3)n2)c(Cl)cn1 (stereo partly drawn) [Example 171, (3S,4R)-4-Methoxy-pyrrolidine-3-carboxylic acid {5′-chloro-6-[((2R,6S)-2,6-dimethyl-tetrahydro-pyran-4-ylmethyl)-amino]-[2,4′]bipyridinyl-2′-yl}-amide] | 9.00 | 
7 | O=C(Nc1cc(-c2nc(NCC3CCOCC3)ccc2Cl)c(Cl)cn1)[C@H]1CNCCO1 [Example 101, (R)-Morpholine-2-carboxylic acid {3,5′-dichloro-6-[(tetrahydro-pyran-4-ylmethyl)-amino]-[2,4′]bipyridinyl-2′-yl}-amide] | 8.10 | 
8 | O=C(Nc1cc(-c2cccc(NCC3CCOCC3)n2)ccn1)[C@@H]1CCCNC1 [Example 15, (R)-Piperidine-3-carboxylic acid {6-[(tetrahydro-pyran-4-ylmethyl)-amino]-[2,4′]bipyridinyl-2′-yl}-amide] | > 8.10 | 
9 | COC(=O)N[C@@H]1CC[C@H](C(=O)Nc2cc(-c3nc(NCC4CCOCC4)ccc3Cl)c(Cl)cn2)C1 [Example 106, ((lR,3S)-3-{3,5′-Dichloro-6-[(tetrahydro-pyran-4-ylmethyl)-amino]-[2,4′]bipyridinyl-2′-ylcarbamoyl}-cyclopentyl)-carbamic acid methyl ester] | > 8.10 | 
10 | COCCOC[C@@H]1C[C@@H](C(=O)Nc2cc(-c3cccc(NCC4(C)CCOCC4)n3)c(Cl)cn2)CN1 [Example 258, (3R,5S)-5-(2-Methoxy-ethoxymethyl)-pyrrolidine-3-carboxylic acid {5′-chloro-6-[(4-methyl-tetrahydro-pyran-4-ylmethyl)-amino]-[2,4′]bipyridinyl-2′-yl}-amide] | 8.70 | 
11 | CC1(C)CC(CNc2cccc(-c3cc(NC(=O)[C@H]4CNCCO4)ncc3Cl)n2)CCO1 (stereo partly drawn) [Example 120, (R)-Morpholine-2-carboxylic acid {5′-chloro-6-[(2,2-dimethyl-tetrahydro-pyran-4-ylmethyl)-amino]-[2,4′]bipyridinyl-2′-yl}-amide] | > 8.10 | 
12 | O=C(Nc1cc(-c2cccc(NCC3CCOCC3)n2)c(Cl)cn1)C1(F)CCCNC1 (centres unmarked) [Example 95, 3-Fluoro-piperidine-3-carboxylic acid {5′-chloro-6-[(tetrahydro-pyran-4-ylmethyl)-amino]-[2,4′]bipyridinyl-2′-yl}-amide] | 6.78 | 
13 | O=C(Nc1cc(-c2cccc(NCC3CCOCC3)n2)c(Cl)cn1)C1CCCC1 [Example 65, Cyclopentanecarboxylic acid {5′-chloro-6-[(tetrahydro-pyran-4-ylmethyl)-amino]-[2,4′]bipyridinyl-2′-yl}-amide] | > 8.10 | 
14 | O=C(Nc1cc(-c2cccc(NCC3CCOCC3)n2)c(Cl)cn1)[C@H]1CCCN(S(=O)(=O)C2CC2)C1 [Example 93, (S)-1-Cyclopropanesulfonyl-piperidine-3-carboxylic acid {5′-chloro-6-[(tetrahydro-pyran-4-ylmethyl)-amino]-[2,4′]bipyridinyl-2′-yl}-amide] | > 8.10 | 

Other lines, results leading:

Row | pIC50 [1] | pIC50 (Cdk9_cyclinT1_IC50, generated using one of the two Cdk9/cyclinT1 assays (IMAP or Alpha Screen), not specified per value) | Compound
15 | 9.00 |  | CC1(CNc2cccc(-c3cc(NC(=O)[C@@H]4CCCNC4)ncc3Cl)n2)CCOCC1 [Example 207, (R)-Piperidine-3-carboxylic acid {5′-chloro-6-[(4-methyl-tetrahydro-pyran-4-ylmethyl)-amino]-[2,4′]bipyridinyl-2′-yl}-amide]
16 | 7.51 |  | O=C(Nc1cc(-c2cccc(NCC3CCOCC3)n2)c(Cl)cn1)[C@H]1CNC[C@H](C(F)(F)F)C1 (racemic) [Example 149, (3R,5R)-/(3S,5S)-5-Trifluoromethyl-piperidine-3-carboxylic acid {5′-chloro-6-[(tetrahydro-pyran-4-ylmethyl)-amino]-[2,4′]bipyridinyl-2′-yl}-amide]
17 | 6.67 |  | O=C(Nc1cc(-c2cccc(NCC3CCOCC3)n2)c(Cl)cn1)C1(F)CCCNC1 (single isomer, unassigned) [Example 118]
18 | 9.00 |  | CC[C@@H]1CC[C@@H](C(=O)Nc2cc(-c3cccc(NCC4CCOCC4)n3)c(Cl)cn2)CN1 (single isomer, unassigned) [Example 240]
19 | > 8.10 |  | O=C(Nc1cc(-c2cccc(NCc3cccnc3)n2)c(Cl)cn1)[C@@H]1CCCNC1 [Example 40, (R)-Piperidine-3-carboxylic acid {5′-chloro-6-[(pyridin-3-ylmethyl)-amino]-[2,4′]bipyridinyl-2′-yl}-amide]
20 | 9.00 |  | COC[C@@H]1C[C@@H](C(=O)Nc2cc(-c3ccc(F)c(NCC4(OC)CCOCC4)n3)c(Cl)cn2)CN1 [Example 253, (3R,5S)-5-Methoxymethyl-pyrrolidine-3-carboxylic acid {5′-chloro-5-fluoro-6-[(4-methoxy-tetrahydro-pyran-4-ylmethyl)-amino]-[2,4′]bipyridinyl-2′-yl}-amide]
21 | 8.40 |  | CC1(C)C[C@H](CNc2ccc(Cl)c(-c3cc(NC(=O)[C@H]4CNCCO4)ncc3Cl)n2)CCO1 (single isomer, unassigned) [Example 156]
22 | > 8.10 |  | CN(CC1CCOCC1)c1cccc(-c2cc(NC(=O)[C@@H]3CCCNC3)ncc2Cl)n1 [Example 35, (R)-Piperidine-3-carboxylic acid {5′-chloro-6-[methyl-(tetrahydro-pyran-4-ylmethyl)-amino]-[2,4′]bipyridinyl-2′-yl}-amide]
23 | > 8.10 |  | O=C(Nc1cc(-c2cccc(NCc3ccncc3)n2)c(Cl)cn1)[C@@H]1CCCNC1 [Example 54, (R)-Piperidine-3-carboxylic acid {5′-chloro-6-[(pyridin-4-ylmethyl)-amino]-[2,4′]bipyridinyl-2′-yl}-amide]
24 | 8.30 |  | O=C(Nc1cc(-c2cccc(NCC3CCOCC3)n2)c(Cl)cn1)[C@H]1CNCCO1 [Example 96, (R)-Morpholine-2-carboxylic acid {5′-chloro-6-[(tetrahydro-pyran-4-ylmethyl)-amino]-[2,4′]bipyridinyl-2′-yl}-amide]
25 | 8.30 |  | C[C@H]1CC[C@H](C(=O)Nc2cc(-c3cccc(NCC4CCOCC4)n3)c(Cl)cn2)CN1 (single isomer, unassigned) [Example 147]
26 | 7.12 |  | O=C(Nc1cc(-c2cccc(NC3CCOCC3)n2)c(Cl)cn1)[C@@H]1CCCNC1 [Example 33, (R)-Piperidine-3-carboxylic acid [5′-chloro-6-(tetrahydro-pyran-4-ylamino)-[2,4′]bipyridinyl-2′-yl]-amide]
27 | 7.30 |  | CC(=O)NCCNc1cccc(-c2cc(NC(=O)[C@@H]3CCCNC3)ncc2Cl)n1 [Example 37, (R)-Piperidine-3-carboxylic acid [6-(2-acetylamino-ethylamino)-5′-chloro-[2,4′]bipyridinyl-2′-yl]-amide]
28 | 9.00 |  | CCC1(CNc2nc(-c3cc(NC(=O)[C@@H]4CCCNC4)ncc3Cl)ccc2F)CCOCC1 [Example 209, (R)-Piperidine-3-carboxylic acid {5′-chloro-6-[(4-ethyl-tetrahydro-pyran-4-ylmethyl)-amino]-5-fluoro-[2,4′]bipyridinyl-2′-yl}-amide]
29 | > 8.10 |  | CCS(=O)(=O)N[C@@H]1CC[C@H](C(=O)Nc2cc(-c3nc(NCC4CCOCC4)ccc3Cl)c(Cl)cn2)C1 [Example 113, (1S,3R)-3-Ethanesulfonylamino-cyclopentanecarboxylic acid {3,5′-dichloro-6-[(tetrahydro-pyran-4-ylmethyl)-amino]-[2,4′]bipyridinyl-2′-yl}-amide]
30 | 8.70 |  | C[C@@H]1CC[C@@H](C(=O)Nc2cc(-c3cccc(NC[C@H]4CCOC(C)(C)C4)n3)ccn2)CN1 (mixture of isomers) [Example 228, (3R,6R)-/(3S,6S)-6-Methyl-piperidine-3-carboxylic acid {6-[((S)-2,2-dimethyl-tetrahydro-pyran-4-ylmethyl)-amino]-[2,4′]bipyridinyl-2′-yl}-amide]
31 | 9.00 |  | COC[C@@H]1C[C@@H](C(=O)Nc2cc(-c3nc(NCC4CCOC(C)(C)C4)ccc3Cl)c(Cl)cn2)CN1 (stereo partly drawn) [Example 186, (3R,5S)-5-Methoxymethyl-pyrrolidine-3-carboxylic acid {3,5′-dichloro-6-[(2,2-dimethyl-tetrahydro-pyran-4-ylmethyl)-amino]-[2,4′]bipyridinyl-2′-yl}-amide]
32 | 9.00 |  | C[C@@H]1CC[C@@H](C(=O)Nc2cc(-c3ccc(F)c(NCC4CCOCC4)n3)c(Cl)cn2)CN1 (single isomer, unassigned) [Example 189]
